Measured values: patent US20170107207A1, “AMINOPYRAZOLONE DERIVATIVE” (DAIICHI SANKYO COMPANY, LIMITED, priority 2014, published 2017)

What was measured:
Assay type in all cases: cell-based
MDA-MB-468 = experiment: Cell growth inhibition test, MDA-MB-468; details: Homo sapiens, 72 h; MDA-MB-468, Breast cancer, 3 days, CellTiter-Glo
Protocol: (§1) A cell growth inhibition test was carried out by treating a cultured cancer cell line with a test compound for a given period and then counting the number of viable cells by CellTiter-Glo Luminescent Cell Viability Assay (manufactured by Promega Corp.).
(§2) The following cells were inoculated to a 384-well plate containing the compound prepared in advance at predetermined concentrations. […]
(§3) The cells thus inoculated were cultured at 37° C. for 3 days under 5% CO2. […] Then, luminescence intensity was measured using a plate reader.
(§4) The number of viable cells and luminescence intensity have been confirmed to correlate with each other. Therefore, the rate of cell growth was calculated according to the following expression: Rate of cell growth (T/C %) of a test compound-supplemented well=100×[(B−C)/(A−C)] wherein A represents the luminescence intensity (final culture date) of a test compound-free well; B represents the luminescence intensity (final culture date) of a test compound-containing well; and C represents the luminescence intensity (day of cell inoculation) of a well at the start of contact of the cells with the test compound.
(§5) T/C % at the concentration of each of the serially diluted test compounds was determined. […]

CAL-51 = experiment: Cell growth inhibition test, CAL-51; details: Homo sapiens, 72 h; CAL-51, Breast cancer, 3 days, CellTiter-Glo
Protocol: as §1, §2, §3, §4, §5

A-172 = experiment: Cell growth inhibition test, A-172; details: Homo sapiens, 72 h; A-172, Brain tumor Central Nerve System, 3 days, CellTiter-Glo
Protocol: as §1, §2, §3, §4, §5

U-138 MG = experiment: Cell growth inhibition test, U-138 MG; details: Homo sapiens, U138-MG, 72 h, Brain tumor Central Nerve System, 3 days, CellTiter-Glo
Protocol: as §1, §2, §3, §4, §5

HCT 116 = experiment: Cell growth inhibition test, HCT 116; details: Homo sapiens, 72 h; HCT 116, Large intestine cancer, 3 days, CellTiter-Glo
Protocol: as §1, §2, §3, §4, §5

SW620 = experiment: Cell growth inhibition test, SW620; details: Homo sapiens, SW-620, 72 h; SW620, Large intestine cancer, 3 days, CellTiter-Glo
Protocol: as §1, §2, §3, §4, §5

OVCAR-5 = experiment: Cell growth inhibition test, OVCAR-5; details: Homo sapiens, 72 h; OVCAR-5, Ovary cancer, 3 days, CellTiter-Glo
Protocol: as §1, §2, §3, §4, §5

ES-2 = experiment: Cell growth inhibition test, ES-2; details: Homo sapiens, 72 h; ES-2, Ovary cancer, 3 days, CellTiter-Glo
Protocol: as §1, §2, §3, §4, §5

NCI-N87 = experiment: Cell growth inhibition test, NCI-N87; details: Homo sapiens, 72 h; NCI-N87, Stomach cancer, 3 days, CellTiter-Glo
Protocol: as §1, §2, §3, §4, §5

MKN45 = experiment: Cell growth inhibition test, MKN45; details: Homo sapiens, MKN-45, 72 h; MKN45, Stomach cancer, 3 days, CellTiter-Glo
Protocol: as §1, §2, §3, §4, §5

FaDu = experiment: Cell growth inhibition test, FaDu; details: Homo sapiens, 72 h, Head and neck cancer, 3 days, CellTiter-Glo
Protocol: as §1, §2, §3, §4, §5

MOLT-4 = experiment: Cell growth inhibition test, MOLT-4; details: Homo sapiens, 72 h; MOLT-4, Leukemia, 3 days, CellTiter-Glo
Protocol: as §1, §2, §3, §4, §5

MV-4-11 = experiment: Cell growth inhibition test, MV-4-11; details: Homo sapiens, MV4-11, 72 h; MV-4-11, Leukemia, 3 days, CellTiter-Glo
Protocol: as §1, §2, §3, §4, §5

RAMOS = experiment: Cell growth inhibition test, RAMOS; details: Homo sapiens, 72 h, Lymphoma, 3 days, CellTiter-Glo
Protocol: as §1, §2, §3, §4, §5

Hep G2 = experiment: Cell growth inhibition test, Hep G2; details: Homo sapiens, HepG2, 72 h; Hep G2, Liver cancer, 3 days, CellTiter-Glo
Protocol: as §1, §2, §3, §4, §5

NCI-H1975 = experiment: Cell growth inhibition test, NCI-H1975; details: Homo sapiens, 72 h; NCI-H1975, Lung cancer, 3 days, CellTiter-Glo
Protocol: as §1, §2, §3, §4, §5

DMS 273 = experiment: Cell growth inhibition test, DMS 273; details: Homo sapiens, 72 h; DMS 273, Lung cancer, 3 days, CellTiter-Glo
Protocol: as §1, §2, §3, §4, §5

PANC-1 = experiment: Cell growth inhibition test, PANC-1; details: Homo sapiens, 72 h; PANC-1, Pancreatic cancer, 3 days, CellTiter-Glo
Protocol: as §1, §2, §3, §4, §5

SK-MEL-28 = experiment: Cell growth inhibition test, SK-MEL-28; details: Homo sapiens, 72 h; SK-MEL-28, Skin cancer, 3 days, CellTiter-Glo
Protocol: as §1, §2, §3, §4, §5

SMILES	GI50 (MDA-MB-468) [µM]	GI50 (CAL-51) [µM]	GI50 (A-172) [µM]	GI50 (U-138 MG) [µM]	GI50 (HCT 116) [µM]	GI50 (SW620) [µM]	GI50 (OVCAR-5) [µM]	GI50 (ES-2) [µM]	GI50 (NCI-N87) [µM]	GI50 (MKN45) [µM]	GI50 (FaDu) [µM]	GI50 (MOLT-4) [µM]	GI50 (MV-4-11) [µM]	GI50 (RAMOS) [µM]	GI50 (Hep G2) [µM]	GI50 (NCI-H1975) [µM]	GI50 (DMS 273) [µM]	GI50 (PANC-1) [µM]	GI50 (SK-MEL-28) [µM]
CCOc1ccc(Cl)cc1C(=O)NCC(C)(C)CC(=O)Nc1c([C@H](C)CN(C)C)n(C)n(-c2ccccc2)c1=O [Example 68, 5-Chloro-N-[4-({5-[(1R)-2-(dimethylamino)-1-methylethyl]-1-methyl-3-oxo-2-phenyl-2,3-dihydro-1H-pyrazol-4-yl}amino)-2,2-dimethyl-4-oxobutyl]-2-ethoxybenzamide]	0.17	0.8	0.38	0.67	0.18	0.84	0.54	0.48	0.27	0.48	0.21	0.13	0.21	0.13	0.58	0.49	0.31	0.9	0.59
CCOc1ncc(Cl)cc1C(=O)NCC(C)(C)CC(=O)Nc1c([C@H](C)CN(C)C)n(C)n(-c2ccccc2)c1=O [Example 73, 5-Chloro-N-[4-({5-[(1R)-2-(dimethylamino)-1-methylethyl]-1-methyl-3-oxo-2-phenyl-2,3-dihydro-1H-pyrazol-4-yl}amino)-2,2-dimethyl-4-oxobutyl]-2-ethoxypyridine-3-carboxamide]	0.51	1.3	0.6	1	0.46	1.6	0.75	0.9	0.66	1.1	0.46	0.18	0.49	0.22	1.1	0.9	0.78	2	0.92
CCOc1cc(F)c(Cl)cc1C(=O)NCC(C)(C)CC(=O)Nc1c(COC)n(C)n(-c2ccccc2)c1=O [Example 113, 5-Chloro-2-ethoxy-4-fluoro-N-(4-{[5-(methoxymethyl)-1-methyl-3-oxo-2-phenyl-2,3-dihydro-1H-pyrazol-4-yl]amino}-2,2-dimethyl-4-oxobutyl)benzamide]	0.32	0.62	0.49	1	0.23	0.91	0.57	0.75	0.53	1	0.35	0.16	0.4	0.16	0.38	0.81	0.54	1.2	0.8
